Data reported in a melting point compilation (Tetko et al.; mined from patent text by program, amines drawn as free bases though some values may be those of a salt).

SMILES | melting point [°C]
CC(=O)N1C(C(=O)O)CSC1c1ccccc1OCCO[N+](=O)[O-] (configuration not stated) | 159 to 162
Cc1ccc(C2c3c(C)c(Br)c(C)c(C=O)c3OC2(C)C)cc1 (configuration not stated) | 128 to 130
O=C(Oc1ccc(-c2ccccc2)cc1)Oc1ccc([N+](=O)[O-])cc1 | 138 to 140
CCOC(=O)c1c(C)cc2c(c1C)c(=O)n(-c1ccccc1Cl)c(=O)n2CCCN(C)Cc1ccccc1 | 145 to 146
CCOC(=O)c1c(OCC)ccn1C(=O)n1cccc1C(=O)O | 58 to 60
Oc1ccc2cc(Cc3c(Cc4ccccc4)sc4ccccc34)ccc2c1Br | 110 to 112
CC(=O)OCc1cc([N+](=O)[O-])ccc1N1C(=O)c2ccc(Cl)cc2C1=O | 124 to 125
CC(=O)N1CC(C)=NN(c2cc(Cl)c(Cc3ccc(Cl)cc3)c(Cl)c2)C1=O | 101 to 102
COc1ccc2c(CC#N)c[nH]c2c1 | 100
COC=C(C(=O)OC)C1=C(C=Cc2ccccc2)CCC1 | 107
OC(CNCc1ccccc1)c1ccc(OCc2ccccc2)c(F)c1 (configuration not stated) | 113 to 114
O=C1N(Cc2cc(=O)[nH]c(=O)[nH]2)c2ccccc2C12COc1cc3c(cc12)OCO3 (configuration not stated) | > 300
COC(=O)c1ccc(C(O)c2cc3cc(C(F)(F)F)ccc3n2S(=O)(=O)c2cccc(C(C)(C)C)c2)cc1 (racemic) | 60
N[C@@H]1C(=O)N(S(=O)(=O)O)[C@H]1C1CCCCC1 (relative stereo) | 135 to 138
CCN(CC)CCOc1ccc(Nc2ncc3c(n2)N(C(C)C)C(=O)N(c2c(Cl)cccc2Cl)C3)cc1 | 125
CC12CCC3C4CCC(OCc5ccccc5)CC4CCC3C1C=CC2=O (configuration not stated) | 119 to 120
COc1ccc(Nc2ncnc3cc(Cl)ccc23)cc1 | 177 to 179
CCCCCCCCCCCCc1ccccc1C(Sc1ncc(C(=O)O)n1C)C(O)CCC(=O)O (configuration not stated) | 79 to 80
COc1ccc(N2CCN(c3c(C)c(C)c4c(c3C)C(c3ccc(C)nc3)C(C)(C)O4)CC2)cc1 (configuration not stated) | 131 to 133
Cn1c(C(=O)NC2CCCCC2)nc(-c2ccc(Cl)cc2Cl)c1-c1ccc(Cl)cc1 | 165
O=C(CF)Nc1ccccc1 | 77 to 78.5
CCOC(=O)C1=C(C)NC(C)=C(C(=O)OCCN2CCN(C(c3ccc(C)cc3)c3ccc(C)cc3)CC2)C1c1ccc(C#N)cc1 (configuration not stated) | 93 to 96
COc1ccc(-c2nc(CNc3ccccc3)nc3cc(OC)c(OC)cc23)cc1OC | 199 to 200
CCCCOc1nc(N)nc2c1ncn2C1C=CC(CO)C1 (configuration not stated) | 122 to 123
COc1cc(CCCC2OC(=O)NC2=O)ccc1OCc1nc(-c2ccccc2)oc1C (configuration not stated) | 161 to 162
Cc1cccc(-c2nc(N)sc2-c2ccnc(F)c2)c1 | 214 to 218

SMILES | melting point [°C]
O=C(O)c1cccc(CC2COc3ccc(OCc4ccc5ccccc5n4)cc3C2O)c1 (configuration not stated) | 193 to 195
CCC(=O)NC1=NN(c2ccccc2)C(c2ccc(C)cc2)C1 (configuration not stated) | 124 to 125
CC(C)(C(=O)O)c1ccc(CCNC(=O)c2ccc(Cl)cc2)cc1 | 234 to 235
O=C(O)c1c([N+](=O)[O-])cccc1[N+](=O)[O-] | 200 to 202
O=C1N(Cc2ccc(C(F)(F)F)o2)c2cc3c(cc2C12COc1cc4c(cc12)OCCO4)OCCO3 (configuration not stated) | 176 to 178
C=CCSc1nnc(OC)c2ccccc12 | 32 to 34
COc1cc(OC)nc(NC(=O)NS(=O)(=O)c2ccccc2C2CO2)n1 (configuration not stated) | 177 to 179
COc1cccc(CC(=O)O)c1OCCCc1cn(-c2ncc(C(F)(F)F)cc2Cl)nc1C(C)C | 96 to 97
Cc1nc(-n2ccc(O)cc2=O)sc1C(=O)NCc1ccc(F)cc1 | 280 to 282
CN(C)c1cc(C(O)CNC(C)(C)C)ccc1O (configuration not stated) | 108 to 110
N=C(Nc1ccc(Cl)cc1)NC1CC2C3CC4C2C4C13 (configuration not stated) | 170 to 171
CC(C)Oc1cccc(-n2c(NN)nc3ccccc3c2=O)c1 | 158 to 160
CCc1cc2c(s1)-n1c(C)nnc1C(CCCC(=O)Nc1ccccc1)N=C2c1ccc(Cl)cc1 (configuration not stated) | 238 to 240
COc1cccc(C2(N(C)C)CCC(C(O)Cc3ccccc3)CC2)c1 (configuration not stated) | 72
O=C(O)Cn1cc(Cl)c(-c2cc(Cl)cc(Cl)c2)n1 | 182
COC(=O)CC(=O)C=Cc1cc2ccccc2s1 | 105 to 107
O=C(NCCN1CCCCC1)c1ccc(=O)n(Cc2ccc(-c3ccccc3)cc2)c1 | 137 to 142
Oc1ccc2c(-c3nc4ccc(O)cc4o3)cccc2c1 | 273 to 275
Nc1cc(-n2cc(C(=O)O)c(=O)c3cc(F)c(F)c(Cl)c32)ncc1F | 280
O=C(NCN1CCN(c2ccccc2Cl)CC1)c1ccccc1 | 145 to 147
NS(=O)(=O)c1cccc2cncn12 | 148 to 151
Cn1cc(C(=S)NCc2ccc(Cl)cc2)c(=O)c2cc(C#CCO)ccc21 | 200 to 201
CCCc1c2c(c([N+](=O)[O-])c3c(=O)cc(C(=O)OCC)oc13)CC(C(=O)OCC)CC2 (configuration not stated) | 164 to 166
Nc1nnc(-c2ccc3occ(-c4ccc(OC(F)(F)F)cc4)c3c2)o1 | 223 to 224
COc1ccccc1SC(c1ccccc1)c1c(O)cc(-c2ccccc2)oc1=O (configuration not stated) | 165 to 170

The next lines start with the values.

melting point [°C] | SMILES
262 to 265 | O=c1[nH]c2ccc(C(F)(F)F)cc2c(-c2cc(Cl)ccc2O)c1NS(=O)(=O)c1ccccc1
74 to 77 | O=C[C@H](Cc1c[nH]c2ccccc12)NC(=O)[C@H](Cc1ccccc1)NC(=O)OCc1ccccc1
211 to 213 | Cc1cccc(C(=O)Nc2nc(=O)c3ccccc3[nH]2)c1
163 to 164 | COc1ccc(C(=O)Nc2ccc(F)cc2)cc1Nc1cccc(C(F)(F)F)c1
212 to 214 | COC(=O)c1oc2ccc(Cl)cc2c1-c1ccccc1C
94 to 95 | CC(C)(C)NNC(=O)c1ccccc1
162 to 165 | O=C(CC1CCCC1)Nc1ccc2cccc(O)c2c1
190 to 192 | COc1cc(OC)nc(NC(=O)NS(=O)(=O)c2cccc3c2SC(C)(C)C3)n1
111 to 114 | CCCc1c(OCC(O)CNc2cccc(N)c2C#N)ccc(C(C)=O)c1O (configuration not stated)
178 to 180 | CCOC(=O)c1cc(-n2c(=O)[nH]c3c(c2=O)CCC3)ccc1Cl
236 | Cc1ccncc1OC1SCC(O)C(O)C1O (configuration not stated)
145 to 147 | Cc1nc(-c2ccccc2)nc(-c2cccc([N+](=O)[O-])c2)c1CN
66 to 67 | O=C(CCc1nc(-c2ccc(Cl)cc2)co1)OCc1ccccc1
243 | CCOC(=O)c1c[nH]c(=O)c2cc(Cl)ccc12
142 to 145 | O=c1[nH]c(Cc2ccccc2)ccc1CCl
147 to 149 | COc1ccc(-c2cc3nc(CNCC(C)O)c4ccccc4c3nn2)cc1 (configuration not stated)
166 to 173 | Cc1noc(NS(=O)(=O)c2ccc(I)cc2)c1Br
119 to 121 | CCCc1nc(S(=O)(=O)Nc2ccccc2Br)nn1-c1ccccc1
226 | C#Cc1cc(C)nc(C(=O)Nc2ccn(C)n2)c1
136 to 140 | Cc1ccc(C=C2C(=O)N(c3cc(F)ccc3F)C(=O)N2C)cc1
238 to 240 | O=C(Nc1ccc(CN2C(=O)[C@H]3CCC[C@H]3N(C(=O)CN3C(=O)c4ccccc4C3=O)c3ccccc32)cc1)c1ccccc1F (relative stereo)
95 to 98 | Cc1cc(-c2cccc(NC(=O)C(C)(C)C)c2)cc2c1[C@H]1CCC(=O)N(C)[C@@H]1CC2
155 to 156 | O=C(NCCOc1ccc(CC(Oc2ccc(Cl)cc2)C(=O)O)cc1)c1ccc(-c2ccccn2)cc1 (configuration not stated)

melting point [°C] | SMILES
157 to 159 | COc1ccc(-c2c(C(=O)N3CCOCC3)ccc3cc(Cl)ccc23)cc1OC
97 to 99 | CCOC(=O)C(C)(Sc1cc2ccccc2[nH]1)c1ccccc1 (configuration not stated)
120 to 121 | O=C(O)Cc1cn(-c2ccccc2)nc1-c1ccccc1
191 to 194 | COC(=O)c1c(NCc2ccc(OC)c(Cl)c2)nc(N2CCC(O)CC2)nc1N1CCn2ccnc2C1
180 to 181 | CCOc1ccc(-c2nc(-c3ccc(OC4OC(COC(C)=O)C(OC(C)=O)C(OC(C)=O)C4OC(C)=O)cc3)cs2)cc1OCC (configuration not stated)
102 to 104 | CC(C)c1cc(Oc2ccc(Cl)cc2)nc(C(C)C)c1[N+](=O)[O-]
209 to 214 | Cc1nc(N2CCN(Cc3cccc(C(F)(F)F)c3)C2=O)sc1-c1cc[nH]n1
156 to 159 | CN(C)Cc1c[nH]c2ccc(CCS(=O)(=O)N(C)C)cc12
244 | O=c1[nH]ncn1C(c1cccc(Cl)c1)c1ccnc2ccccc12 (configuration not stated)
185 to 186 | CSC(=C(N)c1ccc2oc(C)cc2c1)S(C)=O (configuration not stated)
64 to 65 | CCC(=O)c1cc(CC)c(OC)cc1OC
119 to 120 | O=C(O)C1CCCc2cc(C3CCCCC3)c(Cl)cc21 (configuration not stated)
88 to 90 | CCOC(=O)C1=CC2(CCC1S(=O)(=O)Nc1ccc(F)cc1Cl)S(=O)(=O)CCS2(=O)=O (configuration not stated)
161 to 162 | O=C1N(Cc2nnc(-c3ccc(Cl)cc3)o2)c2ccccc2C12COc1cc3c(cc12)OCO3 (configuration not stated)
154 to 155 | CC1(C)OC(c2ccc(S(C)(=O)=O)c(Br)c2)=C(c2ccccc2)C1=O
298 to 300 | Oc1nnc(O)c2c1CCCC2
168 | CC(C)N(C(C)C)S(=O)(=O)N[C@@H](Cc1ccc(Nc2nccc3cnccc23)cc1)C(=O)O
122 to 124 | Nc1nccc2occc12
124 to 126 | Cc1noc(C)c1Cn1cc(-n2c(=O)n(C)n(Cc3ccccc3)c2=O)cn1
147 to 149 | CC(=CC(=O)O)c1cccc([N+](=O)[O-])c1
177 to 179 | Cc1nc2c(OCc3ccccc3)cc(Br)cc2n1C
197 to 198 | CC(=O)c1ccc(-c2coc3ccc(-c4nnc(C)o4)cc23)cc1
201 to 204 | O=C(NS(=O)(=O)C=Cc1ccccc1)N1CCCC1
